Drawing on US9783536B2, “Nitrogen-containing heterocyclic compound or salt thereof” (FUJIFILM Corporation, priority 2013, dated 2017), this text covers IC50 for 37 molecules.

Counter-ions that a name gives are not always drawn.

For assay [1], the target named is T1, GST fusion human ERK2 protein (Homo sapiens, UniProt P28482).
T1 construct: purchased Carna Biosciences, Inc; host or cells: E. coli expression system
The assay is described as follows: ERK2 enzyme assay (1). In kind it is biochemical. Conditions: ERK2 enzyme assay (1); read-out: ERK2 enzyme inhibitory activity (1). The method in brief:
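Enzyme (2.5 nmol/L, E. coli-expressed) preincubated with compound 15 min at room temperature in HEPES/MgCl2/DTT/Brij35 buffer, pH 7.5; reaction with 4.25 μmol/L FL-Peptide 8 and 43.1 μmol/L ATP for 120 min at 25 °C. Phosphorylated peptide fraction quantified by mobility-shift separation after EDTA stop; IC50 calculated.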

A further assay deals with T2, human PI3Kα protein (Homo sapiens, UniProt P42336).
T2 construct: purchased Carna Biosciences, Inc; host or cells: baculovirus expression system
Nature of the assay: PI3Kα enzyme assay (ADP-Glo). The conditions noted are these: read-out: PI3Kα enzyme inhibitory activity. In kind it is biochemical. The method in brief: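 Biotinylated human PI3Kα (baculovirus-expressed, 4.5 nmol/L) pre-incubated 15 min with compound in Tris-HCl pH 7.5, MgCl2, BSA; reaction 60 min at 25° C with 50 μmol/L PIP2 and 100 μmol/L ATP final. ADP quantified by ADP-Glo luminescence; IC50 calculated.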
(ADP-Glo turns the ADP formed in a reaction into a luminescent signal.)

T1 sequence (P28482 whole entry, the tested form may be a part): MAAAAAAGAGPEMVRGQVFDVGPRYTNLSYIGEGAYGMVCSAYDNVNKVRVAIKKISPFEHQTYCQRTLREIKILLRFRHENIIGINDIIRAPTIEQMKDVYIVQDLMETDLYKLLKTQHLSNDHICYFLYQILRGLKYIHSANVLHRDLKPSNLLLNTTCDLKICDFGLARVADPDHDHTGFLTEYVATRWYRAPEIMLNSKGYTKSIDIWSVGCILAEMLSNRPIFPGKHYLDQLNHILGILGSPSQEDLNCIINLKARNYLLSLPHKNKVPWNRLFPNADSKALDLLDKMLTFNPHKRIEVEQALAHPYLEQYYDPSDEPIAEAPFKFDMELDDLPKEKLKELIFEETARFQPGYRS
T2 sequence (P42336 whole entry): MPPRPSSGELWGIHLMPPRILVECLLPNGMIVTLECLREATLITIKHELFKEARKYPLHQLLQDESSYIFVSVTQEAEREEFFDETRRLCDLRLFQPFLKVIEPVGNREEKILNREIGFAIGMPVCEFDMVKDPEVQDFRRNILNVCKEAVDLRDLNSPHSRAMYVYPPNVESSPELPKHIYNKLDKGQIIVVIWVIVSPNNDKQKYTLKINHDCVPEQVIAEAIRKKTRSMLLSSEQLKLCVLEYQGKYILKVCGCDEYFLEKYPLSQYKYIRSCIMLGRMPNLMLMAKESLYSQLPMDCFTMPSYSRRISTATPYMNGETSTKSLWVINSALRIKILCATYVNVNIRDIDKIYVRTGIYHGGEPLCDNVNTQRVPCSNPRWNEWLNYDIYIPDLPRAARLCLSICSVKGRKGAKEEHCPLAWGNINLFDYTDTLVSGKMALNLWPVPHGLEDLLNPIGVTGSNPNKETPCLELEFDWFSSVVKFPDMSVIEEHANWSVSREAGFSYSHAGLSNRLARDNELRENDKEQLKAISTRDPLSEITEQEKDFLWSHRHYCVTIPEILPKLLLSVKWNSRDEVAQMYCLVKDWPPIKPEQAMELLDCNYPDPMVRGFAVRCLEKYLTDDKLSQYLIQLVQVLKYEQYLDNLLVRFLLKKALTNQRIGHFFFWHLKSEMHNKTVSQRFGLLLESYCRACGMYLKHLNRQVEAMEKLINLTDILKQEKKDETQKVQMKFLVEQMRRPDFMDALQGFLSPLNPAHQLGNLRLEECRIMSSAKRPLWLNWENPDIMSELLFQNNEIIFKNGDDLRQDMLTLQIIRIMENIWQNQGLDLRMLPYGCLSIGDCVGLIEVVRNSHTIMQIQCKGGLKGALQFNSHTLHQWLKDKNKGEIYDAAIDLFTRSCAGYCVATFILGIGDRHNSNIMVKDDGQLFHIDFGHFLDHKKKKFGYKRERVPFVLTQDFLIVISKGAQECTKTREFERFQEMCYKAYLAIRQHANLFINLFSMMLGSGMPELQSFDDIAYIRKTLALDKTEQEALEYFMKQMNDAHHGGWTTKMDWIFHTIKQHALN
T2 sequence (P27986 whole entry partner): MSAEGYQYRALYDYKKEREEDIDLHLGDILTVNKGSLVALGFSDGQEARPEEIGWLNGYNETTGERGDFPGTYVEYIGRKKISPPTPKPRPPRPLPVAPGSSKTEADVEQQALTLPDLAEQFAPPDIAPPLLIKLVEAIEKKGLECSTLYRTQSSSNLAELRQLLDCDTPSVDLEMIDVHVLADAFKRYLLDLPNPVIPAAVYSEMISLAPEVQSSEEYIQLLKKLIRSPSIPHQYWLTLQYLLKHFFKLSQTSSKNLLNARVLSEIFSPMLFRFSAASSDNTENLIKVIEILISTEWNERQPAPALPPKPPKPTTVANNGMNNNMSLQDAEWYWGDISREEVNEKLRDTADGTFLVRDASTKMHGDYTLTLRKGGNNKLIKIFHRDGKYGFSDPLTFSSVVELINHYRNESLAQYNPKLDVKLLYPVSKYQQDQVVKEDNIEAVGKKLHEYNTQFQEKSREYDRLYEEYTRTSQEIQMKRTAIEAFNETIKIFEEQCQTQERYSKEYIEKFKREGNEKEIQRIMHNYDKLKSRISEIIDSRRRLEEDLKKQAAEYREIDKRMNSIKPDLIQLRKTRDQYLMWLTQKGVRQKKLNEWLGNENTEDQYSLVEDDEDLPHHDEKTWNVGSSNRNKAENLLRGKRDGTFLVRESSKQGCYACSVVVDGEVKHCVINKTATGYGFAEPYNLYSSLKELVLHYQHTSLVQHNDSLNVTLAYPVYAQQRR

Regarding `CCC(C)(C)c1cnnc(Nc2ccc3ncc(-c4cnn(CCCN5CCCC5)c4)cc3n2)c1` [Example 0296], the IC50 (in assay [1]; on human PI3Kα protein) was under 1000 nM each time.

Consider `c1ccc(-c2cnnc(Nc3ccc4ncc(-c5cnn(CCCN6CCCC6)c5)cc4n3)c2)cc1` [Example 0297, N-(5-phenylpyridazin-3-yl)-7-(1-(3-(pyrrolidin-1-yl)propyl)-1H-pyrazol-4-yl)-1,5-naphthyridine-2-amine], for which the IC50 (in assay [1]; at human PI3Kα protein) was under 1000 nM in each case.

As for `CCCCCc1nnc(Nc2ccc3ncc(-c4cnn(C)c4)cc3n2)[nH]1` [Example 0299, 7-(1-methyl-1H-pyrazol-4-yl)-N-(5-pentyl-4H-1,2,4-triazol-3-yl)-1,5-naphthyridine-2-amine], the figures for the IC50 (in assay [1]; at human PI3Kα protein) were under 1000 nM and 10000 to 50000 nM, respectively.

As to `Cn1cc(-c2cnc3ccc(Nc4nnc[nH]4)nc3c2)cn1` [Example 0300, 7-(1-Methyl-1H-pyrazol-4-yl)-N-(4H-1,2,4-triazol-3-yl)-1,5-naphthyridine-2-amine], the IC50 was under 1000 nM in assay [1] and 1000 to 10000 nM on human PI3Kα protein.

Regarding `CN(C)CCn1cc(-c2cnc3ccc(Nc4nnc(C5CCCC5)s4)nc3c2)cn1` [Example 0304, 5-Cyclopentyl-N-(7-(1-(2-(dimethylamino)ethyl)-1H-pyrazol-4-yl)-1,5-naphthyridin-2-yl)-1,3,4-thiadiazole-2-amine], the IC50 (in assay [1]; on human PI3Kα protein) was under 1000 nM each time.

As for `c1nnc(Nc2ccc3ncc(-c4cnn(CCCN5CCNCC5)c4)cc3n2)s1` [Example 0305, N-(7-(1-(3-(piperazin-1-yl)propyl)-1H-pyrazol-4-yl)-1,5-naphthyridin-2-yl)-1,3,4-thiadiazole-2-amine hydrochloride], the IC50 (in assay [1]; at human PI3Kα protein) was under 1000 nM throughout.

As for `Cn1cc(-c2cc3nc(Nc4nncs4)ccc3nc2N)cn1` [Example 0306, 7-(1-methyl-1H-pyrazol-4-yl)-N^2-(1,3,4-thiadiazol-2-yl)-1,5-naphthyridine-2,6-diamine], the IC50 (in assay [1]; at human PI3Kα protein) was under 1000 nM throughout.

`COCCCNc1cnc2ccc(Nc3nnc(C4CCCC4)s3)nc2c1` [Example 0307]: the IC50 (in assay [1]; on human PI3Kα protein) was under 1000 nM throughout.

On to `COCCNc1cnc2ccc(Nc3nnc(C4CCCC4)s3)nc2c1` [Example 0308], for which the IC50 in assay [1] was under 1000 nM; at human PI3Kα protein, 1000 to 10000 nM.

As for `COCCN(C)c1cnc2ccc(Nc3nnc(C4CCCC4)s3)nc2c1` [Example 0309], the IC50 in assay [1] is under 1000 nM; on human PI3Kα protein it was 1000 to 10000 nM.

As to `OCCNc1cnc2ccc(Nc3nnc(C4CCCC4)s3)nc2c1` [Example 0310], the IC50 in assay [1] was under 1000 nM; at human PI3Kα protein, 1000 to 10000 nM.

With `c1nc2ccc(Nc3nnc(C4CCCC4)s3)nc2cc1NC1CCOCC1` [Example 0312], the IC50 (in assay [1]; at human PI3Kα protein) was under 1000 nM in each case.

Consider `O[C@@H]1CCN(c2cnc3ccc(Nc4nnc(C5CCCC5)s4)nc3c2)C1` [Example 0313], for which the IC50 was under 1000 nM in assay [1] and 1000 to 10000 nM on human PI3Kα protein.

Take `O[C@H]1CCN(c2cnc3ccc(Nc4nnc(C5CCCC5)s4)nc3c2)C1` [Example 0314]: the values for the IC50 (in assay [1]; at human PI3Kα protein) were under 1000 nM and 1000 to 10000 nM, respectively.

On to `c1cc(Nc2cnc3ccc(Nc4nnc(C5CCCC5)s4)nc3c2)no1` [Example 0315, N^2-(5-cyclopentyl-1,3,4-thiadiazol-2-yl)-N^7-(isoxazol-3-yl)-1,5-naphthyridine-2,7-diamine], for which the IC50 is under 1000 nM in assay [1] and 1000 to 10000 nM on human PI3Kα protein.

Take `CN(C)CC(C)(C)Cn1cc(-c2cnc3ccc(Nc4nnc(C5CCCC5)s4)nc3c2)cn1` [Example 0317, 5-Cyclopentyl-N-(7-(1-(3-(dimethylamino)-2,2-dimethylpropyl)-1H-pyrazol-4-yl)-1,5-naphthyridin-2-yl)-1,3,4-thiadiazole-2-amine]: the IC50 (in assay [1]; at human PI3Kα protein) was under 1000 nM in each case.

For `c1nc2ccc(Nc3nnc(C4CCCC4)s3)nc2cc1NC1CCOC1` (centres unmarked) [Example 0319, N^2-(5-cyclopentyl-1,3,4-thiadiazol-2-yl)-N^7-(tetrahydrofuran-3-yl)-1,5-naphthyridine-2,7-diamine], the IC50 (in assay [1]; on human PI3Kα protein) was under 1000 nM in each case.

As to `Cc1nnc(Nc2ccc3ncc(-c4cnn(CCCN5CCCC5)c4)cc3n2)s1` [Example 0323], the IC50 (in assay [1]; on human PI3Kα protein) was under 1000 nM each time.

As for `c1nc2ccc(Nc3nnc(C4CCCO4)s3)nc2cc1-c1cnn(C2CCNCC2)c1` (centres unmarked) [Example 0324, N-(7-(1-(piperidin-4-yl)-1H-pyrazol-4-yl)-1,5-naphthyridin-2-yl)-5-(tetrahydrofuran-2-yl)-1,3,4-thiadiazole-2-amine], the IC50 (in assay [1]; on human PI3Kα protein) was under 1000 nM throughout.

Take `CN(c1cnc2ccc(Nc3nnc(C4CCCC4)s3)nc2c1)C1CCOC1` (centres unmarked) [Example 0326, N^2-(5-cyclopentyl-1,3,4-thiadiazol-2-yl)-N^7-methyl-N^7-(tetrahydrofuran-3-yl)-1,5-naphthyridine-2,7-diamine]: the IC50 (in assay [1]; on human PI3Kα protein) was under 1000 nM each time.

Regarding `C1=C(c2cnc3ccc(Nc4nnc(C5CCCC5)s4)nc3c2)CCNC1` [Example 0330, 5-cyclopentyl-N-(7-(1,2,3,6-tetrahydropyridin-4-yl)-1,5-naphthyridin-2-yl)-1,3,4-thiadiazole-2-amine hydrochloride], the IC50 in assay [1] is under 1000 nM; on human PI3Kα protein, 1000 to 10000 nM.

Take `c1nc2ccc(Nc3nnc(C4CCCC4)s3)nc2cc1C1CCNCC1` [Example 0332, 5-Cyclopentyl-N-(7-(piperidin-4-yl)-1,5-naphthyridin-2-yl)-1,3,4-thiadiazole-2-amine hydrochloride]: the IC50 in assay [1] was under 1000 nM; at human PI3Kα protein, 10000 to 50000 nM.

Take `CN1CC=C(c2cnc3ccc(Nc4nnc(C5CCCC5)s4)nc3c2)CC1` [Example 0333, 5-cyclopentyl-N-(7-(1-methyl-1,2,3,6-tetrahydropyridin-4-yl)-1,5-naphthyridin-2-yl)-1,3,4-thiadiazole-2-amine]: the IC50 in assay [1] is under 1000 nM; on human PI3Kα protein, 1000 to 10000 nM.

With `CC(=O)N1CC=C(c2cnc3ccc(Nc4nnc(C5CCCC5)s4)nc3c2)CC1` [Example 0334, 1-(4-(6-((5-cyclopentyl-1,3,4-thiadiazol-2-yl)amino)-1,5-naphthyridin-3-yl)-5,6-dihydropyridine-1(2H)-yl)ethanone], the IC50 (in assay [1]; at human PI3Kα protein) was under 1000 nM throughout.

For `CC(=O)N1CCC(c2cnc3ccc(Nc4nnc(C5CCCC5)s4)nc3c2)CC1` [Example 0335, 1-(4-(6-((5-Cyclopentyl-1,3,4-thiadiazol-2-yl)amino)-1,5-naphthyridin-3-yl)piperidin-1-yl)ethanone], the figures for the IC50 (in assay [1]; on human PI3Kα protein) were under 1000 nM and 10000 to 50000 nM, respectively.

For the molecule `Cc1cnccc1-c1cnc2ccc(Nc3cc(C(C)C)cnn3)nc2c1` [Example 0361], the figures for the IC50 (in assay [1]; at human PI3Kα protein) were under 1000 nM and 1000 to 10000 nM, respectively.

For `CC(C)(C)c1nnc(Nc2ccc3ncc(-c4cnn(CCCN5CCCC5)c4)cc3n2)s1` [Example 0366], the IC50 (in assay [1]; at human PI3Kα protein) was under 1000 nM in each case.

Turning to `OCCc1nnc(Nc2ccc3ncc(-c4cnn(CCCN5CCCC5)c4)cc3n2)s1` [Example 0367], the IC50 (in assay [1]; on human PI3Kα protein) was under 1000 nM each time.

`CC(C)c1cnnc(Nc2ccc3ncc(-c4ccccn4)cc3n2)c1` [Example 0369]: the IC50 is under 1000 nM in assay [1] and 1000 to 10000 nM on human PI3Kα protein.

On to `CC(C)c1cnnc(Nc2ccc3ncc(-c4cnn(CCCN5CCC5)c4)cc3n2)c1` [Example 0371], for which the IC50 (in assay [1]; at human PI3Kα protein) was under 1000 nM throughout.

`CC(C)c1cnnc(Nc2ccc3ncc(-c4cnn(Cc5ccccn5)c4)cc3n2)c1` [Example 0375, N-(5-isopropylpyridazin-3-yl)-7-(1-(pyridin-2-ylmethyl)-1H-pyrazol-4-yl)-1,5-naphthyridine-2-amine]: the IC50 (in assay [1]; at human PI3Kα protein) was under 1000 nM each time.

For `CC(C)c1cnnc(Nc2ccc3ncc(-c4cnn(Cc5cccnc5)c4)cc3n2)c1` [Example 0376], the IC50 (in assay [1]; on human PI3Kα protein) was under 1000 nM each time.

For `CC(C)c1cnnc(Nc2ccc3ncc(-c4cnn(CCc5ccncc5)c4)cc3n2)c1` [Example 0377], the IC50 (in assay [1]; on human PI3Kα protein) was under 1000 nM throughout.

As to `COC1CCCN(CCCn2cc(-c3cnc4ccc(Nc5cc(C(C)C)cnn5)nc4c3)cn2)C1` (centres unmarked) [Example 0378, N-(5-isopropylpyridazin-3-yl)-7-(1-(3-(3-methoxypiperidin-1-yl)propyl)-1H-pyrazol-4-yl)-1,5-naphthyridine-2-amine], the IC50 (in assay [1]; at human PI3Kα protein) was under 1000 nM in each case.

Take `CC(C)c1cnnc(Nc2ccc3ncc(-c4cnn(CCCN5CCCC(C#N)C5)c4)cc3n2)c1` (centres unmarked) [Example 0379, 1-(3-(4-(6-((5-Isopropylpyridazin-3-yl)amino)-1,5-naphthyridin-3-yl)-1H-pyrazol-1-yl)propyl)piperidine-3-carbonitrile]: the IC50 (in assay [1]; on human PI3Kα protein) was under 1000 nM in each case.

In the case of `CC(C)c1cnnc(Nc2ccc3ncc(-c4cnn(CCn5ccnc5)c4)cc3n2)c1` [Example 0380, 7-(1-(2-(1H-imidazol-1-yl)ethyl)-1H-pyrazol-4-yl)-N-(5-isopropylpyridazin-3-yl)-1,5-naphthyridine-2-amine], the IC50 (in assay [1]; at human PI3Kα protein) was under 1000 nM throughout.

Turning to `CC(C)c1cnnc(Nc2ccc3ncc(-c4cnn(Cc5ccncc5)c4)cc3n2)c1` [Example 0381], the IC50 (in assay [1]; on human PI3Kα protein) was under 1000 nM in each case.
